Measured values from patent US6897210B2, “Quinazoline derivatives and pharmaceutical compositions containing them” (Zeneca Limited, priority 1996, dated 2005).
Where a name gives a salt, the structure may show the parent alone.

Tests used:
[1] = tested on: VEGF receptor tyrosine kinase (Flt, KDR); experiment: In vitro receptor tyrosine kinase inhibition test (VEGF receptor); assay type: biochemical; details: VEGF receptor tyrosine kinase compared with EGF receptor tyrosine kinase
From the text: (a) In Vitro Receptor Tyrosine Kinase Inhibition Test
This assay determines the ability of a test compound to inhibit tyrosine kinase activity. […] These may then be expressed in a suitable expression system to obtain polypeptide with tyrosine kinase activity. […] This recombinant construct was co-transfected into insect cells (for example Spodoptera frugiperda 21(Sf21)) with viral DNA (eg Pharmingen BaculoGold) to prepare recombinant baculovirus.
For expression of cFlt tyrosine kinase activity, Sf21 cells were infected with plaque-pure cFlt recombinant virus at a multiplicity of infection of 3 and harvested 48 hours later. […] The suspension was centrifuged for 10 minutes at 13,000 rpm at 4° C., the supernatant (enzyme stock) was removed and stored in aliquots at −70° C. Each new batch of stock enzyme was titrated in the assay by dilution with enzyme diluent (100 mM Hepes pH 7.4, 0.2 mM sodium orthovanadate. 0.1% v/v Triton X100, 0.2 mM dithiothreitol). For a typical batch, stock enzyme is diluted 1 in 2000 with enzyme diluent and 50 μl of dilute enzyme is used for each assay well.
A stock of substrate solution was prepared from a random copolymer containing tyrosine, for example Poly (Glu, Ala, Tyr) 6:3:1 (Sigma P3899), stored as 1 mg/ml stock in PBS at −20° C. and diluted 1 in 500 with PBS for plate coating.
On the day of the assay the substrate solution was discarded and the assay plate wells were washed once with PBST (PBS containing 0.05% v/v Tween 20) and once with 50 mM Hepes pH7.4.
Test compounds were diluted with 10% dimethylsulphoxide (DMSO) and 25 μl of diluted compound was transferred to wells in the washed assay plates. “Total” control wells contained 10% DMSO instead of compound. Twenty five microliters of 40 mM manganese(II)chloride containing 8 μM adenosine-5′-triphosphate (ATP) was added to all test wells except “blank” control wells which contained maganese(II)chloride without ATP. To start the reactions 50 μl of freshly diluted enzyme was added to each well and the plates were incubated at room temperature for 20 minutes. The liquid was then discarded and the wells were washed twice with PBST. […] Plates were then incubated for 20-60 minutes at room temperature until the optical density value of the “total” control wells, measured at 405 nm using a plate reading spectrophotometer, was approximately 1.0.

Structure (SMILES) | melting point | activity against VEGF and EGF receptor tyrosine kinases [1]
COc1cc2ncnc(Nc3ccc(C)c(O)c3)c2c([N+](=O)[O-])c1OC.Cl | 206 to 208 °C | –
COc1cc2c(Nc3ccc(Cl)cc3F)ncnc2cc1OCCCS(C)(=O)=O (as salt: hydrochloride) [Example 16, 4-(4-chloro-2-fluoroanilino)-6-methoxy-7-(3-(methylsulphonyl)propoxy)quinazoline] | > 250 °C | –
COc1cc2c(Nc3ccc(Cl)cc3F)ncnc2cc1OCC#CCN1CCOCC1.Cl.O (hydrate or solvate) [Example 10, 4-(4-chloro-2-fluoroanilino)-6-methoxy-7-(4-morpholinobut-2-yn-1-yloxy)quinazoline hydrochloride hydrate] | 175 to 178 °C | –
COCCOc1cc2ncnc(Nc3ccc(C)c(OC(C)=O)c3)c2cc1OC [Example 1, 4-(3-acetoxy-4-methylanilino)-6-methoxy-7-(2-methoxyethoxy)quinazoline] | 180 to 183 °C | –
COCCOCCOc1cc2ncnc(Nc3ccc(Cl)cc3F)c2cc1OC.Cl [Example 5, 4-(4-chloro-2-fluoroanilino)6-methoxy-7-(2(2-methoxyethoxy)ethoxy)quinazoline hydrochloride] | – | substantially equivalent activity
COc1cc2c(Nc3ccc(Cl)cc3F)ncnc2cc1OCC1OCCO1 [Example 6, 4-(4-chloro-2-fluoroanilino)-7-(1,3-dioxolan-2-ylmethoxy)-6-methoxyquinazoline] | – | substantially equivalent activity
COc1cc2c(Nc3ccc(Cl)cc3F)ncnc2cc1OCC#CCN1CCOCC1.Cl.O [Example 10, 4-(4-chloro-2-fluoroanilino)-6-methoxy-7-(4-morpholinobut-2-yn-1-yloxy)quinazoline hydrochloride hydrate] | – | substantially equivalent activity
COc1cc2c(Nc3ccc(Cl)cc3F)ncnc2cc1OCCN1CCSCC1 [Example 12, 4-(4-chloro-2-fluoroanilino)-6-methoxy-7-(2-thiomorpholinoethoxy)quinazoline] | 181 to 182 °C | substantially equivalent activity
COc1cc2c(Nc3ccc(Cl)cc3F)ncnc2cc1OCCCS(C)(=O)=O [Example 16, 4-(4-chloro-2-fluoroanilino)-6-methoxy-7-(3-(methylsulphonyl)propoxy)quinazoline] | – | substantially equivalent activity
COc1cc2c(Nc3ccc(Cl)cc3F)ncnc2cc1OC/C=C/CN1CCCC1.Cl [Example 17] | – | substantially equivalent activity
COc1cc2c(Nc3ccc(Cl)cc3F)ncnc2cc1OCCS(C)(=O)=O [Example 30, 4-(4-chloro-2-fluoroanilino)-6-methoxy-7-(2-methylsulphonylethoxy)quinazoline] | 227 to 230 °C | –
COc1cc2c(Nc3ccc(Br)cc3F)ncnc2cc1OCCCS(C)(=O)=O [Example 32, 4-(4-bromo-2-fluoroanilino)6-methoxy-7-(3-methylsulphonylpropoxy)quinazoline] | > 250 °C | –
COc1cc2c(Nc3ccc(Cl)cc3F)ncnc2cc1OCCNC(=O)OC(C)(C)C [Example 34, 7-(2-[N-tert-butoxycarbonylamino]ethoxy)4-(4-chloro-2-fluoroanilino)6-methoxyquinazoline] | 190 to 191 °C | substantially equivalent activity
COc1cc2c(Nc3ccc(Cl)cc3F)ncnc2cc1OCCN1C(=O)CCCC1=O [Example 35, 4-(4-chloro-2-fluoroanilino)-7-(2-(2,6-dioxopiperidino)ethoxy)-6-methoxyquinazoline] | 202 to 203 °C | –
COc1cc2c(Nc3ccc(Cl)cc3F)ncnc2cc1OCCN1CCCC1=O.Cl [Example 39, 4-(4-chloro-2-fluoroanilino)6-methoxy-7-(2-(2-oxopyrrolidin-1-yl)ethoxy)quinazoline hydrochloride] | 250 to 252 °C | substantially equivalent activity
COc1cc2c(Nc3ccc(Cl)cc3F)ncnc2cc1OCCCN1CCCC1=O.Cl [Example 47, 4-(4-chloro-2-fluoroanilino)-6-methoxy-7-(3-(2-oxopyrrolidin-1-yl)propoxy)quinazoline hydrochloride] | – | substantially equivalent activity

Structure (SMILES) | melting point | activity against VEGF and EGF receptor tyrosine kinases [1]
COc1cc2c(Nc3ccc(Br)cc3F)ncnc2cc1OCCCN1CCCC1=O.Cl [Example 48] | – | substantially equivalent activity
COc1cc2c(Nc3ccc(Br)cc3F)ncnc2cc1OCCCN(C)S(C)(=O)=O.Cl [Example 49, 4(4bromo-2-fluoroanilino)-6-methoxy-7-(3([N-methyl-N-methylsulphonyl]amino)propoxy)quinazoline hydrochloride] | – | substantially equivalent activity
COc1cc2c(Nc3ccc(Br)cc3F)ncnc2cc1OCCCN1CCC[C@H]1C(N)=O.Cl [Example 50, (S)-4-(4-bromo-2-fluoroanilino)-7-(3-(2-carbamoylpyrrolidin-1-yl)propoxy)6-methoxyquinazoline hydrochloride] | – | substantially equivalent activity
COCC(=O)N(C)CCOc1cc2ncnc(Nc3ccc(Cl)cc3F)c2cc1OC.Cl [Example 51, 4-(4-chloro-2-fluoroanilino) methoxy-7-(2-([N-methyl-N-methoxyacetyl]amino)ethoxy)quinazoline hydrochloride] | – | substantially equivalent activity
COc1cc2c(Nc3ccc(Cl)cc3F)ncnc2cc1OCCN1CCOCC1=O.Cl [Example 52, 4-(4-chloro-2-fluoroanilino)6-methoxy-7-(2-(3-oxomorpholino)ethoxy)quinazoline hydrochloride] | – | substantially equivalent activity
COc1cc2c(Nc3ccc(Cl)cc3F)ncnc2cc1OCCOCCN1CCOCC1.Cl [Example 53, 4-(4-chloro-2-fluoroanilino)-6-methoxy-7-(22-morpholinoethoxy)ethoxy)quinazoline hydrochloride] | – | substantially equivalent activity
COc1cc2c(Nc3ccc(Cl)cc3F)ncnc2cc1OCCCN1CCC[C@H]1C(N)=O.Cl [Example 54, (S)-7-(3-(2-carbamoylpyrrolidin-1-yl)propoxy)4-(4-chloro-2-fluoroanilino)-6-methoxyquinazoline hydrochloride] | – | substantially equivalent activity
COc1cc2c(Nc3ccc(Cl)cc3F)ncnc2cc1OCCCN1CC(C)OC(C)C1.Cl (stereo not shown) [Example 55, 4-(4-chloro-2-fluoroanilino)7(3(2,6-dimethylmorpholino)propoxy)6-methoxyquinazoline hydrochloride] | – | substantially equivalent activity
Cl.Fc1cc(Cl)ccc1NCOc1ncnc2cc(SCCCN3CCOCC3)ccc12 [Example 56, 4-(4-chloro-2-fluoroanilino)methoxy-7-(3-morpholinopropylthio)quinazoline hydrochloride] | – | substantially equivalent activity
COc1cc2c(Nc3ccc(Cl)cc3F)ncnc2cc1OCCCN(C)S(C)(=O)=O.Cl [Example 59] | – | substantially equivalent activity
COc1cc2c(Nc3ccc(Cl)cc3F)ncnc2cc1OCCOCCN1CCN(C)CC1.Cl [Example 63] | – | substantially equivalent activity
COc1cc2c(Nc3ccc(Cl)cc3F)ncnc2cc1OCCOCCN1CCCC1.Cl [Example 64, 4-(4-chloro-2-fluoroanilino)-6-methoxy-7-(2-(2-pyrrolidin-1-ylethoxy)ethoxy)quinazoline hydrochloride] | – | substantially equivalent activity
COc1cc2c(Nc3ccc(Cl)cc3F)ncnc2cc1OC/C=C/CN1CCOCC1.Cl [Example 66, (E)-4-(4-chloro-2-fluoroanilino)-6-methoxy-7-(4-morpholinobut-2-en-1-yloxy)quinazoline hydrochloride] | – | substantially equivalent activity
COc1cc2c(Nc3ccc(Br)cc3F)ncnc2cc1OCCN1CCOCC1=O.Cl [Example 67, 4-(4-bromo-2-fluoroanilino)-6-methoxy-7-(2-(3 oxomorpholino)ethoxy)quinazoline hydrochloride] | – | substantially equivalent activity
COc1cc2c(Nc3ccc(Br)cc3F)ncnc2cc1OCCN1CCCC1=O.Cl [Example 68, 4-(4-bromo-2-fluoroanilino)methoxy-7-(2-(2-oxpyrrolidin-1-yl)ethoxy)quinazoline hydrochloride] | – | substantially equivalent activity
